According to US20060134097A1, “Process for production of aqueous colloid of graphite silica particles emitting far-infrared rays” (priority 2004, published 2006):

Tests used:
[1] = system: Tyrosinase derived from mushroom; test: tyrosinase activity inhibition; format: biochemical; details: control agents
Method: The above aqueous colloid (conc) of the present invention as a basic material, and ascorbic acid and hydroquinone as control agents were used. Tyrosinase used that derived from mushroom (from Sigma Co., Ltd.: 2,500 U/mg). Specifically, for testing an inhibiting effect against tyrosinase activity, 4 kinds of solutions were prepared. (1) a tyrosine solution (0.5 mg/ml); 0.5 ml loading, (2) a 1/15 M phosphate buffer (pH 6.8); 2.0 ml loading, (3) a tyrosine solution (6.0 mg/100 ml); 0.5 ml loading, and (4) a test solution: the nanocolloid particle and/or the aqueous colloid of the present invention, ascorbic acid, or hydroquinone (0.005, 0.01, 0.05, 0.1, 0.5 mg) dissolved in buffer; 2.0 ml loading. The solutions of (1) to (4) were mixed to incubate at 37° C. for one hour, followed by the measurement of absorbance (At) at 475 nm. In addition, the absorbance obtained by adding the phosphate buffer (2 ml) in place of each test solution to carry out the same operation (Ab) was used as control to determine an inhibition rate. The inhibition rate was calculated from the resultant Ab and At values using the formula: inhibition rate=(Ab−At)/Ab×100.

[2] = system: writhing reaction induced by acetic acid in mice; test: acetic acid-induced writhing reaction; format: in vivo; details: count over 10 minutes from 10 minutes after 0.7% acetic acid i.p.; s.c. 30 minutes before: aspirin 300 mg/kg, colloid 0.1 ml/10 g
Source text: Then, an analgesic effect of the aqueous colloid of the present invention in mice was studied using a writhing reaction induced by acetic acid. In the observation of the behavior of twisting in response e.g. to a pain due to acetic acid irritation in the peritoneal cavity (writhing), when the administration of an agent suppresses the writhing reaction, the agent can be said to have depressed pseudo affective response, assessing it as having an anti-nociceptive effect. 1) ddy strain male mice (7-week old; 27 to 38 g; 6 mice per group); 2) drug solution: aspirin in 0.1 M Tris-Hydrochloride buffer as a solvent (pH 7.8); […] 4) the aqueous colloid of the present invention: 100 ml of the nanocolloid of the present invention to which 0.9 g of sodium chloride was added to make an isotonicsolution. 1) dividing mice into 3 groups to subcutaneously administer, to an aspirin (300 mg/kg) treatment group, the aspirin solution, the Tris-Hydrochloride buffer to a control group, and the aqueous nanocolloid (0.1 ml/10 g) to the remaining group; […] 3) starting to count the frequency of writhing 10 minutes after the administration of the acetic acid and recording a frequency of writhing during a period of 10 minutes. (See FIG. 10)

tyrosinase activity [1] | Structure (SMILES) | frequency of writhing [2]
inhibited the tyrosinase activity | O=C1O[C@H]([C@@H](O)CO)C(O)=C1O [ascorbic acid] | 
 | CC(=O)Oc1ccccc1C(=O)O [aspirin] | 10.5±1.2
inhibited the tyrosinase activity | Oc1ccc(O)cc1 [hydroquinone] | 
